According to US11161839B2, “2-quinolone derived inhibitors of BCL6” (Cancer Research Technology Limited, priority 2017, dated 2021):

Legend:
[1] = target: BCL6-NCOR2(SMRT) corepressor protein-protein interaction (Homo sapiens (Human), UniProt P41182); experiment: NanoBRET cell assay in transfected HEK293T cells; assay type: cell-based; conditions: further generated data (Table 2b); HEK293T cells, 6 hr; read-out: NanoBRET cell pIC50 (converted)
[2] = target: human BCL6 BTB domain (Trx-6xHis-BCL6) (Homo sapiens (Human), UniProt P41182); experiment: HTRF in vitro assay (BCL6 BTB domain / BCOR-AF633 peptide); assay type: binding
[3] = further generated data (Table 1b), 1 nM Trx-6xHis-BCL6, 0.5 nM anti-6xHis-Terbium cryptate
[4] = initially generated data (Table 1a), 10 nM Trx-6xHis-BCL6, 1 nM anti-6xHis-Terbium cryptate

Row | IC50 [1] [µM] | HTRF pIC50 [2, 3] | HTRF pIC50 [2, 4] | IC50 ([2]; further generated data (Table 1b), 1 nM Trx-6xHis-BCL6, 0.5 nM anti-6xHis-Terbium cryptate, read-out: HTRF pIC50 (converted)) [µM] | SMILES
1 | 2.75 | 6.66 |  |  | C[C@@H](Nc1nc(=O)n(C)c2ccc(Nc3ccnc(Cl)c3C#N)cc12)C1CC1 [Example 10m, (R)-2-chloro-4-((4-((1-cyclopropylethyl)amino)-1-methyl-2-oxo-1,2-dihydroquinazolin-6-yl)amino)nicotinonitrile]
2 |  | 6.57 | 6.73 |  | C[C@@H](Nc1cc(=O)n(C)c2ccc(Nc3ccnc(Cl)c3C#N)cc12)C(=O)NCCO [Example 3b, (R)-2-((6-((2-chloro-3-cyanopyridin-4-yl)amino)-1-methyl-2-oxo-1,2-dihydroquinolin-4-yl)amino)-N-(2-hydroxyethyl)propanamide]
3 |  | 6.26 | 6.31 |  | Cc1ccnc(C(C)Nc2cc(=O)n(C)c3ccc(Nc4ccnc(Cl)c4C#N)cc23)n1 (centres unmarked) [Example 1i, 2-chloro-4-[[1-methyl-4-[1-(4-methylpyrimidin-2-yl)ethylamino]-2-oxo-6-quinolyl]amino]pyridine-3-carbonitrile]
4 |  | 6.11 |  |  | CC(Nc1cc(=O)n(C)c2ccc(Nc3nc(N4CCc5nn(C)cc5C4)ncc3Cl)cc12)c1ncccn1 (centres unmarked) [Example 17k, 6-((5-chloro-2-(2-methyl-2,4,6,7-tetrahydro-5H-pyrazolo[4,3-c]pyridin-5-yl)pyrimidin-4-yl)amino)-1-methyl-4-((1-(pyrimidin-2-yl)ethyl)amino)quinolin-2(1H)-one]
5 |  | 6.56 |  |  | Cn1c(=O)cc(NCC2CC2)c2cc(Nc3cc(C(=O)O)nc(Cl)c3C#N)ccc21 [Example 9l, 6-chloro-5-cyano-4-((4-((cyclopropylmethyl)amino)-1-methyl-2-oxo-1,2-dihydroquinolin-6-yl)amino)picolinic acid]
6 |  | 6.42 | 6.59 |  | COCCNC(=O)[C@@H](C)Nc1cc(=O)n(C)c2ccc(Nc3ccnc(Cl)c3C#N)cc12 [Example 3e, (R)-2-((6-((2-chloro-3-cyanopyridin-4-yl)amino)-1-methyl-2-oxo-1,2-dihydroquinolin-4-yl)amino)-N-(2-methoxyethyl)propanamide]
7 |  | 7.65 |  |  | Cn1c(=O)cc(NC(C)(C)c2ncccn2)c2cc(Nc3cc(C(=O)O)nc(Cl)c3C#N)ccc21 [Example 9f, 6-chloro-5-cyano-4-((1-methyl-2-oxo-4-((2-(pyrimidin-2-yl)propan-2-yl)amino)-1,2-dihydroquinolin-6-yl)amino)picolinic acid]
8 |  | 6.08 | 6.50 |  | CC(Nc1cc(=O)n(C)c2ccc(Nc3ccnc(Cl)c3C#N)cc12)c1nc[nH]n1 (centres unmarked) [Example 1e, 2-chloro-4-[[1-methyl-2-oxo-4-[1-(1H-1,2,4-triazol-3-yl)ethylamino]-6-quinolyl]amino]pyridine-3-carbonitrile]
9 |  | 6.29 | 6.27 |  | CC(Nc1cc(=O)n(C)c2ccc(Nc3ccnc(Cl)c3C#N)cc12)c1cnccn1 (centres unmarked) [Example 1j, 2-chloro-4-[[1-methyl-2-oxo-4-(1-pyrazin-2-ylethylamino)-6-quinolyl]amino]pyridine-3-carbonitrile]
10 |  | 5.95 | 6.19 |  | CC(CCO)Nc1nc(=O)n(C)c2ccc(Nc3ccnc(Cl)c3C#N)cc12 (centres unmarked) [Example 1k, 2-chloro-4-[[4-[(3-hydroxy-1-methyl-propyl)amino]-1-methyl-2-oxo-quinazolin-6-yl]amino]pyridine-3-carbonitrile]
11 |  | 6.17 |  |  | CC(Nc1cc(=O)n(CC2CCCCC2)c2ccc(Nc3ccnc(Cl)c3C#N)cc12)c1ncccn1 (centres unmarked) [Example 10v, 2-chloro-4-((1-(cyclohexylmethyl)-2-oxo-4-((1-(pyrimidin-2-yl)ethyl)amino)-1,2-dihydroquinolin-6-yl)amino)nicotinonitrile]
12 |  | 6.01 | 6.31 |  | C[C@@H](CCO)Nc1cc(=O)n(C)c2ccc(Nc3ccnc(Cl)c3C#N)cc12 [Example 3n, (S)-2-Chloro-4-((4-((4-hydroxybutan-2-yl)amino)-1-methyl-2-oxo-1,2-dihydroquinolin-6-yl)amino)nicotinonitrile]
13 |  | 6.14 | 6.05 |  | C[C@H](CO)Nc1cc(=O)n(C)c2ccc(Nc3ccnc(Cl)c3C#N)cc12 [Example 3j, (R)-2-chloro-4-((4-((1-hydroxypropan-2-yl)amino)-1-methyl-2-oxo-1,2-dihydroquinolin-6-yl)amino)nicotinonitrile]
14 |  | 6.22 |  |  | CC(Nc1cc(=O)n(C)c2ccc(Nc3ncnc(Cl)c3C#N)cc12)c1ncccn1 (centres unmarked) [Example 10t, 4-chloro-6-((1-methyl-2-oxo-4-((1-(pyrimidin-2-yl)ethyl)amino)-1,2-dihydroquinolin-6-yl)amino)pyrimidine-5-carbonitrile]
15 |  | 5.84 | 6.00 |  | CC(Nc1cc(=O)n(C)c2ccc(Nc3ccnc(Cl)c3C#N)cc12)c1cc[nH]n1 (centres unmarked) [Example 1t, 2-chloro-4-[[1-methyl-2-oxo-4-[1-(1H-pyrazol-3-yl)ethylamino]-6-quinolyl]amino]pyridine-3-carbonitrile]
16 |  | 6.66 |  |  | CCC(C)(C)Nc1cc(=O)n(C)c2ccc(Nc3cc(C(=O)O)nc(Cl)c3C#N)cc12 [Example 9o, 6-chloro-5-cyano-4-((1-methyl-2-oxo-4-(tert-pentylamino)-1,2-dihydroquinolin-6-yl)amino)picolinic acid]
17 |  | 6.27 | 6.37 |  | Cn1c(=O)cc(N[C@H]2C[C@H](O)C2)c2cc(Nc3ccnc(Cl)c3C#N)ccc21 [Example 1f, trans-2-chloro-4-[[4-[(3-hydroxycyclobutyl)amino]-1-methyl-2-oxo-6-quinolyl]amino]pyridine-3-carbonitrile]
18 |  | 6.29 | 6.10 |  | CC(Nc1cc(=O)n(C)c2ccc(Nc3ccnc(Cl)c3C#N)cc12)c1ccncn1 (centres unmarked) [Example 1q, 2-chloro-4-[[1-methyl-2-oxo-4-(1-pyrimidin-4-ylethylamino)-6-quinolyl]amino]pyridine-3-carbonitrile]
19 |  |  |  | 0.851 | CNC(=O)c1cc(Nc2ccc3c(c2)c(N[C@H]2CCC[C@H]2OC)cc(=O)n3C)c(C#N)c(Cl)n1 (racemic) [Example 19g, rac-6-chloro-5-cyano-4((4-(((1S,2R)-2-methoxycyclopentyl)amino)-1-methyl-2-oxo-1,2-dihydroquinolin-6-yl)amino)-N-methylpicolinamide]
20 |  | 6.54 |  |  | C[C@@H]1C[C@H](C)CN(c2ncc(Cl)c(Nc3ccc4c(c3)c(NC(C)(C)c3ncccn3)nc(=O)n4C)n2)C1 [Example 26g, 6-[[5-chloro-2-[(3R,5S)-3,5-dimethyl-1-piperidyl]pyrimidin-4-yl]amino-1-methyl-4-[(1-methyl-1-pyrimidin-2-yl)ethyl)amino]quinazolin-2-one:formic acid (1:1)]
21 |  | 6.71 | 6.48 |  | C#CCCNC(=O)[C@@H](C)Nc1cc(=O)n(C)c2ccc(Nc3ccnc(Cl)c3C#N)cc12 [Example 3f, (R)-N-(But-3-yn-1-yl)-2-((6-((2-chloro-3-cyanopyridin-4-yl)amino)-1-methyl-2-oxo-1,2-dihydroquinolin-4-yl)amino)propanamide]
22 |  | 6.58 |  |  | CC(Nc1nc(=O)n(C)c2ccc(Nc3nc(N4C[C@H](C)C[C@H](C)C4)ncc3Cl)cc12)c1ncccn1 (stereo partly drawn) [Example 12e, 6-((5-chloro-2-((3R,5S)-3,5-dimethylpiperidin-1-yl)pyrimidin-4-yl)amino)-1-methyl-4-((1-(pyrimidin-2-yl)ethyl)amino)quinazolin-2(1H)-one:formic acid (1:1)]
23 |  | 6.07 | 6.03 |  | CC(Nc1cc(=O)n(C)c2ccc(Nc3ccnc(Cl)c3C#N)cc12)c1nccs1 (centres unmarked) [Example 1s, 2-chloro-4-[[1-methyl-2-oxo-4-(1-thiazol-2-ylethylamino)-6-quinolyl]amino]pyridine-3-carbonitrile]
24 |  | 6.21 |  |  | C[C@@H](Nc1cc(=O)n(C)c2ncc(Nc3ccnc(Cl)c3Cl)cc12)C1CC1 [Example 6f, (R)-4-((1-cyclopropylethyl)amino)-6-((2,3-dichloropyridin-4-yl)amino)-1-methyl-1,8-naphthyridin-2(1H)-one]
25 |  | 7.74 |  |  | Cn1c(=O)cc(NC(C)(C)c2ncc(C3CC3)cn2)c2cc(Nc3cc(C(=O)O)nc(Cl)c3C#N)ccc21 [Example 9a, 6-chloro-5-cyano-4-((4-((2-(5-cyclopropylpyrimidin-2-yl)propan-2-yl)amino)-1-methyl-2-oxo-1,2-dihydroquinolin-6-yl)amino)picolinic acid]
26 |  | 7.32 |  |  | Cn1c(=O)nc(NC(C)(C)c2ncccn2)c2cc(Nc3nc(N4CCC(F)(F)C(CO)C4)ncc3Cl)ccc21 (centres unmarked) [Example 12i, 6-((5-chloro-2-(4,4-difluoro-3-(hydroxymethyl)piperidin-1-yl)pyrimidin-4-yl)amino)-1-methyl-4-((2-(pyrimidin-2-yl)propan-2-yl)amino)quinazolin-2(1H)-one]
27 |  | 6.77 |  |  | C#CC1(Nc2cc(=O)n(C)c3ccc(Nc4cc(C(=O)O)nc(Cl)c4C#N)cc23)CC1 [Example 9h, 6-chloro-5-cyano-4-((4-((1-ethynylcyclopropyl)amino)-1-methyl-2-oxo-1,2-dihydroquinolin-6-yl)amino)picolinic acid]

Row | SMILES | IC50 [1] [µM] | HTRF pIC50 [2, 3] | HTRF pIC50 [2, 4] | IC50 ([2]; further generated data (Table 1b), 1 nM Trx-6xHis-BCL6, 0.5 nM anti-6xHis-Terbium cryptate, read-out: HTRF pIC50 (converted)) [µM]
28 | Cn1c(=O)cc(NCCF)c2cc(Nc3cc(C(=O)O)nc(Cl)c3C#N)ccc21 [Example 9c, 6-chloro-5-cyano-4-((4-((2-fluoroethyl)amino)-1-methyl-2-oxo-1,2-dihydroquinolin-6-yl)amino)picolinic acid] |  | 6.05 |  | 
29 | CCNc1cc(=O)n(C)c2ccc(Nc3cc(C(=O)O)nc(Cl)c3C#N)cc12 [Example 4, 6-Chloro-5-cyano-4-[[4-(ethylamino)-1-methyl-2-oxo-6-quinolyl]amino]pyridine-2-carboxylic acid] |  | 6.07 | 6.06 | 
